Where a SMILES comes first, the peptide text is derived from it. Bridges are numbered along the chain shown (N, C = ends). [ ]: non-standard residue; d: D form. Orn = NCCC[C@H](N)C(=O)O; Mpa = O=C(O)CCS
What was measured:
IVF/ICSI patients [1] = conditions: cited from earlier work
IVF/ICSI patients [2] = assay: BASIC randomized, placebo-controlled, double-blind clinical trial: barusiban subcutaneously on the day of transfer, implantation in IVF/ICSI patients; assay type: in vivo, human
From the text: Example 1: A randomized, placebo-controlled, double-blind, parallel groups, multinational, multicenter trial assessing the effect of barusiban administered subcutaneously on the day of transfer on implantation and pregnancy rates in IVF/ICSI patients
BASIC was a randomized, double-blind, placebo-controlled, parallel groups, multinational, multicenter trial. It was designed to evaluate the effects of barusiban, administered either on the day of cleavage-stage embryo transfer or on the day of blastocyst transfer, on ongoing implantation rate in IVF/ICSI patients. The patients underwent controlled ovarian stimulation in the long GnRH agonist or GnRH antagonist protocol, received hCG for triggering of final follicular maturation, had undergone oocyte retrieval, and had daily luteal phase support by supplementation with vaginal progesterone starting on day 1 post-retrieval, and transfer on day 3 or 5 post-retrieval. Patients were randomized in a 1:1 ratio to either the barusiban group or the placebo group, with stratification according to the day of transfer (day 3 post-retrieval or day 5 post-retrieval) and the number of embryos/blastocysts to be transferred (1 or 2). In total, 255 IVF/ICSI patients were randomized in the trial and contributing with 440 embryos/blastocysts.
Investigational medicinal product, i.e., barusiban or placebo according to randomization, was administered as subcutaneous injections at two time points: 1st administration of 40 mg barusiban or placebo was […] prior to transfer and the 2nd administration of 10 mg barusiban or placebo was […] after the 1st administration.
Transfer was performed on day 3 (cleavage-stage embryos) or day 5 (blastocysts) after oocyte retrieval. On day 3, only embryos of good quality defined as ≥6 blastomeres and ≤20% fragmentation were transferred. On day 5, blastocysts with expansion and hatching status 3, 4, 5 or 6 were transferred. The actual number of transferred embryos/blastocysts for each individual patient depended on the availability of embryos; blastocysts of the required morphological quality, local regulations and clinical practice for the patient's age, but the maximum number was 2.
Key aspects related to the transfer procedure had been standardized. A speculum was inserted into the vagina and cleaning of the vagina and cervix was done according to local practices but with minimal manipulation and disturbance. Soft or ultrasoft catheters were used. The outer sheath of the catheter was inserted just protruding to the internal os (i.e. keeping the outer sheath in the cervical canal). The embryo(s)/blastocyst(s) were loaded into the inner sheath which was then inserted through the outer sheath. Using abdominal ultrasound guidance, the embryo(s)/blastocyst(s) were placed 1.5-2.0 cm from the fundus. The time from loading the inner catheter to placing the embryo(s)/blastocyst(s) should not have exceeded 1 min. After placement, the inner and outer catheters were withdrawn and checked for retained embryo(s)/blastocyst(s), mucus and blood. After confirmation that there were no embryo(s)/blastocyst(s) left in the catheters, the speculum was subsequently removed; this occurred approximately within 2 min after placement of the embryo(s)/blastocyst(s). Any difficulties/eventualities occurring during the transfer procedure were recorded.
Patients received vaginal progesterone tablets 100 mg twice daily from the day after oocyte retrieval and until the day of the clinical pregnancy visit. On the day of transfer, patients should insert the progesterone tablets at least 3 hours before transfer and at least 3 hours after transfer. Ongoing implantation rate (primary endpoint) was defined as the number of intrauterine viable fetuses 10-11 weeks after transfer divided by number of embryos/blastocysts transferred. […]

Row | Compound | increase in implantation or live birth rates compared to placebo (IVF/ICSI patients [1]; administration on day 2 or day 3 post-retrieval (early luteal phase)) | live birth rate (IVF/ICSI patients [1]; cleavage-stage embryo transfer on day 2 or day 3 post-retrieval, N=800, placebo 38.0%) [%] | effect on improving ongoing implantation rate (IVF/ICSI patients [2]; blastocyst transfer on day 5 (receptive stage), p=0.0270) | odds ratio for ongoing implantation rate (IVF/ICSI patients [2]; blastocyst transfer on day 5 post-retrieval, vs placebo, CI 1.1-4.7, p=0.0270) | relative Δ of ongoing implantation rate vs placebo (IVF/ICSI patients [2]; blastocyst transfers (day 5), adjusted means 45% vs 27%) [%] | adjusted mean of ongoing implantation rate (IVF/ICSI patients [2]; blastocyst transfers (day 5 post-retrieval), placebo 27%) [%] | effect on ongoing implantation rate (IVF/ICSI patients [2]; cleavage-stage embryo transfer on day 3 (pre-receptive stage)) | odds ratio for ongoing implantation rate (IVF/ICSI patients [2]; cleavage-stage embryo transfer on day 3 post-retrieval, vs placebo, CI 0.3-1.2, p=0.1509) | odds ratio for ongoing implantation rate (IVF/ICSI patients [2]; overall (day 3+day 5), barusiban vs placebo, logistic regression, PP, 95% CI 0.7-1.8, p=0.6960) | observed overall ongoing implantation rate (IVF/ICSI patients [2]; overall (day 3+day 5 transfers), per-protocol population, 40 mg + 10 mg s.c. on day of transfer) [%] | ongoing implantation rate (IVF/ICSI patients [2]; overall, intention-to-treat (ITT) population) [%]
1 | CCOc1ccc(C[C@H]2NC(=O)CCSSC[C@@H](C(=O)N3CCC[C@H]3C(=O)N[C@@H](CCCN)C(=O)NCC(N)=O)NC(=O)[C@H](CC(N)=O)NC(=O)[C@H]([C@@H](C)O)NC(=O)[C@H]([C@@H](C)CC)NC2=O)cc1 [atosiban, 1-(3-mercaptopropanoic acid)-2-(O-ethyl-D-tyrosine)-4-L-threonine-8-L-ornithine-oxytocin] ([Mpa][dY](Et)ITNCP[Orn]G-NH2; disulfide 1-6) | no significant increase | 39.8 | – | – | – | – | – | – | – | – | –
2 | barusiban | – | – | significant | 2.3 | 67 | 45 | No effect | 0.3 | 1.1 | 27.1 | 26.2

— patent US11752157B2, “Oxytocin receptor antagonist therapy in the luteal phase for implantation and pregnancy in women undergoing assisted reproductive technologies” (Ferring B.V., priority 2014, dated 2023)
